In patent publication US7208469B2, “Therapeutic method” (Auckland UniServices Limited, priority 1997, dated 2007):
Positions of bridges follow the written chain, without caps; N, C: chain ends. No end group written: not given here.

How the values were obtained:
chondrocytes [1] = experiment: Chondrocytes 3-dimensional cell cultures in alginate beads: proliferation (cell counts and 3H-thymidine incorporation); type: cell-based, dog
Procedure: Alginate head cultures were established as described by Guo, et al. Culture and growth characteristics of chondrocytes encapsulated in alginated beads. Connective Tissue Research 19:277–297 (1989). Briefly the cells were suspended in a solution of 1.25% (wt/vol) alginate in HEPES (20 mM HEPES buffer pH neutral) at a density of 2×10^6 cells/ml> The suspension of chondrocytes were slowly extruded through a 22-gauge needle in a dropwise manner into 40 ml of 0.1 M CaCl2 solution. After instantaneous gelation, the beads were allowed to further polymerise in CaCl2 solution (10 mins, room temperature). The beads were washed sequentially, twice in 0.15 M NaCl and twice in Dulbecco's modified Eagle's medium (DME). After the washing procedure, the beads were placed into 24-well culture plates (10 beads/well) and fed with 1 ml 10% fetal calf serum (FCS) SMW with 5μg/ml ascorbic acid. The cultures were maintained at 37° C. in a humidified atmosphere of 5% CO2 in air. The medium was changed every second day. […] Cell numbers were analysed at day 8 by exposing alginate beads to 50 mM ethylenediaminetetraacetic acid (EDTA) for approximately 10 minutes at 37° C. […] Tritiated-thymidine incorporation (^3H-thymidine) was assessed by pulsing the beads with ^3H-thymidine (1μCi/well) 48 hours before the end of experimental incubation. […] Pellets were resuspended and counted for radioactivity.

chondrocytes [2] = experiment: Chondrocyte monolayer cell cultures: proliferation (cell counts and [3H]-thymidine incorporation); type: cell-based, dog; settings: 24 hours
Procedure: Fresh cartilage samples were collected from the tibial plateaus and femoral condyles of mature, healthy crossbred dogs (2–4 years; 20–25 kg). The chondrocytes were isolated as previously described (Connective Tissue Research 1988; 18:205–222). Briefly, the chondrocytes were obtained by pronase and collagenase digestion of the cartilage, then the cells were centrifuged, washed and resuspended in media before being cultured in 75 cm^2 tissue culture flasks. The cells were incubated under 5% CO2 and 95% air at 37° C. Confluence was reached by 7–10 days, at which time the cells were subcultured. After trypsinization, the cells are rinsed and resuspended in fresh medium, then seeded at 5×10^4 cells/ml in 24-well plates (0.5 ml cell suspension per well, ie. 1.4×10^4 cells/cm^2). Proliferation studies (cell counts and thymidine incorporation) were performed. Subconfluent population were changed to serum-free medium with 0.1% bovine serum albumin plus the experimental compounds. Cell numbers were analysed at 24 hours after addition of the peptide or vehicle. The cell numbers were determined using a haemocytometer chamber. Results were expressed per well. [^3H]-thymidine incorporation was assessed by pulsing the cells with [^3H]-thymidine (1 uCi/well) two hours before the end of the experimental incubation. The experiment was terminated at 24 hours by washing the cells in media containing cold thymidine followed by the addition of 10% tricholoroacetic acid. The precipitate was washed twice with ethanol:ether (3:1) and the wells desiccated at room temperature. The residue was redissolved in 2 M KOH at 55° C. for 30 mins, neutralised with 1 M HCl, and an aliquot counted for radioactivity. Results were expressed as dpm per well. For both cell counts and thymidine incorporation, each experiment was performed at least 4 different times using experimental groups consisting of at least 6 wells.

[3] = system: tibiae of normal adult male mice; experiment: In vivo study: daily subcutaneous injection in mice, tibial growth plate width and tibial length; settings: male Swiss mice, 300 ug/kg/injection s.c., 5 days/week for 4 weeks; for tibial (epiphyseal) growth plate width: mean±sem, controls 0.081-0.094 mm
Procedure: Two groups of 20 sexually mature male Swiss mice aged between 40 and 50 days and weighing 25–32 g, were given daily subcutaneous injections (50 ul) in the loose skin at the nape of the neck for 5 days/week over 4 consecutive weeks. The treated group was injected with peptide at a dose of 300 ug/kg/injection and the control group was injected with vehicle (water). Animals were housed in a room maintained at 20° C. on 12-hour light/dark cycles. They were fed diet 86 rodent pellets (New Zealand Stockfeed Ltd) ad libitum throughout the experiment. Each animal's weight was recorded at the beginning and end of the experiment. One day after the last injection, animals were sacrificed by cervical dislocation. They study had the approval of the local institutional review board.
The tibiae were dissected free of adherent tissue. Tibial lengths were recorded by measuring the distance between the proximal epiphysis and the distal tibio-fibular junction using an electronic micrometer (Digimatic Calipers, Mitutoyo, Japan). Bones were placed in 10% phosphate-buffered formalin for 24 hours and then dehydrated in a graded series of ethanol solutions and embedded, undecalcified, in methylmethacrylate resin. Tibiae were sectioned longitudinally through the frontal plane and calvariae were cut cross-sectionally at the base of the parietal bone. All sections were 4 um think and were cut on a Leitz microtome using a tungsten-carbide knife (Microknife Sharpening, Utah, USA). Sections were mounted on gelatin-coated slides and air-dried. They were stained with Goldner's tri-chrome and examined using an Olympus BX 50 microscope (Olympus Optical Co Ltd, Tokyo, Japan) which was attached to an Osteomeasure Image Analyzer (Osteometrics Inc. Atlanta, Ga.).
Tibial histomorphometric analyses were made from three adjacent sections one third of the way through the anterior/posterior depth of the proximal tibiae. Epiphyseal growth plate thickness was measured at three sites evenly spaced along its length. All measurements were made by one operator who was blinded to the treatment group of each bone.

Amylin (KCNTATCATQRLANFLVHSSNNFGAILSSTNVGSNTY; listed as Rattus norvegicus) [rat amylin sourced from Bachem California]
thymidine incorporation (DNA synthesis) (chondrocytes [1]; day 8, peptide 10^−10M, control 1135±85, p<0.001): 2584±229 dpm
cell numbers (chondrocytes [1]; day 8, per well, peptide 10^−10M, control 5.58±0.16, p<0.03): 6.07±0.05 ×10^4
thymidine incorporation (DNA synthesis) (chondrocytes [2]; per well, amylin concentration not given, control 20725±997): 25937±1203 dpm
cell numbers (chondrocytes [2]; per well, mean±sem, amylin concentration not given, control 4.12±0.23, p=0.01): 5.11±0.21 ×10^4
tibial (epiphyseal) growth plate width [3]: 0.108±0.003 mm
total length of the tibiae ([3]; control 11.31±0.07): 11.67±0.09 mm

Adrenomedullin (YRQSMNNFQGLRSFGCRFGTCTVQKLAHQIYQFTDKDKDNVAPRSKISPQGY-NH2; disulfide 16-21 (inferred); ends not checked; UniProt P35318 95-146, looked up) [52-amino acid peptide first described by Kitamura et al; synthesized by solid-phase procedures]
cell numbers (chondrocytes [2]; peptide 10^−9M, control 1.79±0.07, p<0.01): 2.27±0.12 ×10^4

Amylin-(1–8) (KCNTATCA-NH2; disulfide 2-7 (inferred); listed as Rattus norvegicus)
cell numbers (chondrocytes [2]; peptide 10–8M, control 3.23±0.11, p=0.02): 3.63±0.09 ×10^4
thymidine incorporation (DNA synthesis) (chondrocytes [2]; peptide 10–8M, control 26859±423, p=0.02): 28932±628 dpm
tibial (epiphyseal) growth plate width [3]: 0.111 mm

Adrenomedullin-(27–52) (AHQIYQFTDKDKDNVAPRSKISPQGY; listed as Homo sapiens)
tibial (epiphyseal) growth plate width [3]: 0.11 mm
